Tests used:
Format in all cases: cell-based
α-synuclein aggregate [1] = test: Test 2: suppressing the accumulation of α-synuclein aggregate in neurospheroid from PLA2G6 mutant human iPS cells; conditions: compound added day 4, measured day 9, DMSO = 100%; for activity at 0.1 µM: 100 nM, read-out: Amount of aggregate (%) 100 nM; for activity at 1 µM: 1000 nM, read-out: Amount of aggregate (%) 1000 nM
Method: Test 2: Evaluation of Suppressing the Accumulation of α-Synuclein Aggregate with Neurospheroid Prepared from Human iPS Cells with a Mutation in PLA2G6 Gene
(§1) (1) Induction of Differentiation from Human iPS Cell to Neural Cell
Neural stem cells were induced from PLA2G6 gene mutant iPS cells with PSC Neuronal Induction Medium (Thermo Fisher Scientific Inc., cat #A1647801). Neurospheroid was prepared from the induced neural stem cells by three-dimensional culture system, and preserved with BrainPhys Neuronal Medium (STEMCELL Technologies, cat #ST-05793) comprising NeuroCult SM1 Neuronal Supplement, N2 Supplement-A, 20 ng/mL BDNF, 20 ng/mL GDNF, 1 mM dibutyryl cAMP, and 200 nM ascorbic acid. Half of the culture medium was replaced on day 2 and day 4 after the induction of differentiation.
The test compound was diluted with the culture medium so as to be twice the final concentration, and an equal volume of the twice-concentrated solution was added to each well when half of the culture medium was replaced on day 4 after induction of differentiation.
(§2) (2) Evaluation of the Amount of α-Synuclein Aggregate
(§3) From the neurospheroid 9 days after the induction of differentiation, proteins were extracted with a TBS solution containing 1% TritionX-100, and the extracted proteins were subjected to a protein analysis with Simple Western system (Protein Simple, Inc., cat #SM-W008) using an α-synuclein antibody (Thermo Fisher Scientific Inc., cat #AHB0261) to measure the amount of the α-synuclein aggregate.
Assuming that the amount of the aggregate in the neurospheroid added with a DMSO solution is 100%, the amount of the aggregate in the neurospheroid added with each test compound was evaluated.

α-synuclein aggregate [2] = test: Test 3: reducing the accumulation of α-synuclein aggregate in neurospheroid from PLA2G6 mutant human iPS cells; conditions: compound added day 10, measured day 15, DMSO = 100%
Method: Test 3: Evaluation of Reducing the Accumulation of α-Synuclein Aggregate with Neurospheroid Prepared from Human iPS Cells with a Mutation in PLA2G6 Gene
as §1
(§4) Neural stem cells were induced from PLA2G6 gene mutant iPS cells with PSC Neuronal Induction Medium (Thermo Fisher Scientific Inc., cat #A1647801). Neurospheroid was prepared from the induced neural stem cells by three-dimensional culture system, and preserved with BrainPhys Neuronal Medium (STEMCELL Technologies, cat #ST-05793) comprising NeuroCult SM1 Neuronal Supplement, N2 Supplement-A, 20 ng/mL BDNF, 20 ng/mL GDNF, 1 mM dibutyryl cAMP, and 200 nM ascorbic acid. Half of the culture medium was replaced every 3 or 4 days after the induction of differentiation.
The test compound was diluted with the culture medium so as to be twice the final concentration, and an equal volume of the twice-concentrated solution was added to each well when half of the culture medium was replaced on day 10 after induction of differentiation.
as §2
as §3, with “15” for “9”
(§5) The amount of the aggregate in the neurospheroid added with each test compound was measured. Assuming that the amount of the aggregate in the neurospheroid added with a DMSO solution is 100%, the amount of the aggregate in the test samples was evaluated.

α-synuclein aggregate [3] = test: Test 5: suppressing the accumulation of α-synuclein aggregate in dopamine neurospheroid from PLA2G6 mutant human iPS cells; conditions: compound added day 21, measured day 26, DMSO = 100%
Method: Test 5: Evaluation of Suppressing the Accumulation of α-Synuclein Aggregate with Dopamine Neurospheroid Prepared From Human iPS Cells with a Mutation in PLA2G6 Gene
as §1
as §4, with “Dopaminergic progenitor” for “Neural stem”, “dopaminergic neuron differentiation kit” for “PSC Neuronal Induction Medium”, “#A3147701). Dopamine neurospheroid” for “#A1647801). Neurospheroid”, “dopaminergic progenitor” for “neural stem”
The test compound was diluted with the culture medium so as to be twice the final concentration, and an equal volume of the twice-concentrated solution was added to each well when half of the culture medium was replaced on day 21 after induction of differentiation.
as §2
as §3, with “From the dopamine neurospheroid 26” for “From the neurospheroid 9”, “dopamine neurospheroid 26 days after” for “the neurospheroid 9 days after”
as §5

α-synuclein aggregate [4] = test: Test 11: reducing the accumulation of α-synuclein aggregate in dopamine neurospheroid from GBA1 mutant human iPS cells; conditions: compound added day 40, measured day 44, DMSO = 100%
Method: Test 11: Evaluation of Reducing the Accumulation of α-Synuclein Aggregate with Dopamine Neurospheroid Prepared From Human iPS Cells with a Mutation in GBA1 Gene
as §1
as §4, with “Dopaminergic progenitor” for “Neural stem”, “GBA1” for “PLA2G6”, “dopaminergic neuron differentiation kit” for “PSC Neuronal Induction Medium”, “#A3147701). Dopamine neurospheroid” for “#A1647801). Neurospheroid”, “dopaminergic progenitor” for “neural stem”, “days.” for “days after the induction of differentiation.”
The test compound was diluted with the culture medium so as to be twice the final concentration, and an equal volume of the twice-concentrated solution was added to each well when half of the culture medium was replaced on day 40 after induction of differentiation.
as §2
as §3, with “From the dopamine neurospheroid 44” for “From the neurospheroid 9”, “dopamine neurospheroid 44 days after” for “the neurospheroid 9 days after”
as §5

SMILES: CCC1(C(=O)/N=c2\ccccn2C)COC1 [Example 1, 3-Ethyl-N-[(2E)-1-methylpyridin-2(1H)-ylidene]oxetane-3-carboxamide]
- activity at 0.1 µM (α-synuclein aggregate [1]): 20%
- activity at 1 µM (α-synuclein aggregate [1]): 21%
- Amount of aggregate (%) 100 nM (α-synuclein aggregate [2]): 23%
- Amount of aggregate (%) 1000 nM (α-synuclein aggregate [2]): 18%
- Amount of aggregate (%) 100 nM (α-synuclein aggregate [3]): 9%
- Amount of aggregate (%) 1000 nM (α-synuclein aggregate [3]): 13%
- Amount of aggregate (%) 100 nM (α-synuclein aggregate [4]): 12%
- Amount of aggregate (%) 1000 nM (α-synuclein aggregate [4]): 19%

SMILES: CCn1cccc/c1=N\C(=O)C1(C)COC1 [Example 3, N-[(2E)-1-ethylpyridin-2(1H)-ylidene]-3-methyloxetane-3-carboxamide]
- activity at 0.1 µM (α-synuclein aggregate [1]): 35%
- activity at 1 µM (α-synuclein aggregate [1]): 74%
- Amount of aggregate (%) 100 nM (α-synuclein aggregate [2]): 19%
- Amount of aggregate (%) 1000 nM (α-synuclein aggregate [2]): 70%
- Amount of aggregate (%) 100 nM (α-synuclein aggregate [3]): 28%
- Amount of aggregate (%) 1000 nM (α-synuclein aggregate [3]): 78%
- Amount of aggregate (%) 100 nM (α-synuclein aggregate [4]): 44%
- Amount of aggregate (%) 1000 nM (α-synuclein aggregate [4]): 39%

SMILES: COc1ccn(C)/c(=N/C(=O)C2(C)CN(C)C2)c1 [Example 51, N-[(2E)-4-methoxy-1-methylpyridin-2(1H)-ylidene]-1,3-dimethylazetidine-3-carboxamide]
- activity at 0.1 µM (α-synuclein aggregate [1]): 4%
- activity at 1 µM (α-synuclein aggregate [1]): 9%
- Amount of aggregate (%) 100 nM (α-synuclein aggregate [2]): 12%
- Amount of aggregate (%) 1000 nM (α-synuclein aggregate [2]): 10%
- Amount of aggregate (%) 100 nM (α-synuclein aggregate [3]): 27%
- Amount of aggregate (%) 1000 nM (α-synuclein aggregate [3]): 31%
- Amount of aggregate (%) 100 nM (α-synuclein aggregate [4]): 16%
- Amount of aggregate (%) 1000 nM (α-synuclein aggregate [4]): 30%

SMILES: COc1c/c(=N\C(=O)C2(C)CN(C)C2)n(C)cc1Cl [Example 60, N-[(2E)-5-chloro-4-methoxy-1-methylpyridin-2(1H)-ylidene]-1,3-dimethylazetidine-3-carboxamide]
- activity at 0.1 µM (α-synuclein aggregate [1]): 44%
- activity at 1 µM (α-synuclein aggregate [1]): 15%
- Amount of aggregate (%) 100 nM (α-synuclein aggregate [2]): 9%
- Amount of aggregate (%) 1000 nM (α-synuclein aggregate [2]): 9%
- Amount of aggregate (%) 100 nM (α-synuclein aggregate [3]): 21%
- Amount of aggregate (%) 1000 nM (α-synuclein aggregate [3]): 15%

SMILES: CCC1(C(=O)/N=c2\ccc(F)cn2C)COC1 [Example 31, 3-ethyl-N-[(2E)-5-fluoro-1-methylpyridin-2(1H)-ylidene]oxetane-3-carboxamide]
- activity at 0.1 µM (α-synuclein aggregate [1]): 25%
- activity at 1 µM (α-synuclein aggregate [1]): 53%
- Amount of aggregate (%) 100 nM (α-synuclein aggregate [2]): 23%
- Amount of aggregate (%) 1000 nM (α-synuclein aggregate [2]): 19%
- Amount of aggregate (%) 100 nM (α-synuclein aggregate [3]): 13%
- Amount of aggregate (%) 1000 nM (α-synuclein aggregate [3]): 12%

SMILES: CCC1(C(=O)/N=c2\cc(OC)ccn2C)COC1 [Example 9, 3-ethyl-N-[(2E)-4-methoxy-1-methylpyridin-2(1H)-ylidene]oxetane-3-carboxamide]
- activity at 0.1 µM (α-synuclein aggregate [1]): 4%
- activity at 1 µM (α-synuclein aggregate [1]): 3%
- Amount of aggregate (%) 100 nM (α-synuclein aggregate [2]): 52%
- Amount of aggregate (%) 1000 nM (α-synuclein aggregate [2]): 37%
- Amount of aggregate (%) 100 nM (α-synuclein aggregate [3]): 5%
- Amount of aggregate (%) 1000 nM (α-synuclein aggregate [3]): 28%

SMILES: Cn1cccc/c1=N\C(=O)C1(C)COC1 [Example 2, 3-methyl-N-[(2E)-1-methylpyridin-2(1H)-ylidene]oxetane-3-carboxamide]
- activity at 0.1 µM (α-synuclein aggregate [1]): 31%
- activity at 1 µM (α-synuclein aggregate [1]): 38%
- Amount of aggregate (%) 100 nM (α-synuclein aggregate [2]): 36%
- Amount of aggregate (%) 1000 nM (α-synuclein aggregate [2]): 35%
- Amount of aggregate (%) 100 nM (α-synuclein aggregate [3]): 24%
- Amount of aggregate (%) 1000 nM (α-synuclein aggregate [3]): 3%
- Amount of aggregate (%) 100 nM (α-synuclein aggregate [4]): 42%
- Amount of aggregate (%) 1000 nM (α-synuclein aggregate [4]): 37%

SMILES: Cc1ccn(C)/c(=N/C(=O)C2(C)COC2)c1 [Example 4]
- activity at 0.1 µM (α-synuclein aggregate [1]): 10%
- activity at 1 µM (α-synuclein aggregate [1]): 120%

SMILES: Cn1cccc/c1=N\C(=O)C1(C)CN(C2CC2)C1 [Example 72, 1-Cyclopropyl-3-methyl-N-[(2E)-1-methylpyridin-2(1H)-ylidene]azetidine-3-carboxamide]
- activity at 0.1 µM (α-synuclein aggregate [1]): 64%
- activity at 1 µM (α-synuclein aggregate [1]): 75%

SMILES: CCC1(C(=O)/N=c2\cc(OC(F)(F)F)ccn2C)COC1 [Example 15]
- activity at 0.1 µM (α-synuclein aggregate [1]): 2%
- activity at 1 µM (α-synuclein aggregate [1]): 120%

SMILES: CCC1(C(=O)/N=c2\cc(Cl)ccn2C)COC1 [Example 21]
- activity at 0.1 µM (α-synuclein aggregate [1]): 37%
- activity at 1 µM (α-synuclein aggregate [1]): 7%

SMILES: CCn1ccc(Cl)c/c1=N\C(=O)C1(C)COC1 [Example 22]
- activity at 0.1 µM (α-synuclein aggregate [1]): 28%
- activity at 1 µM (α-synuclein aggregate [1]): 48%

SMILES: CCOc1ccn(C)/c(=N/C(=O)C2(C)CN(C)C2)c1 [Example 53]
- activity at 0.1 µM (α-synuclein aggregate [1]): 16%
- activity at 1 µM (α-synuclein aggregate [1]): 92%

SMILES: Cn1cccc/c1=N\C(=O)C1CCOC(C)(C)C1 (stereo not shown) [Example 64]
- activity at 0.1 µM (α-synuclein aggregate [1]): 69%
- activity at 1 µM (α-synuclein aggregate [1]): 72%

SMILES: CN1CC(C)(C(=O)/N=c2\ccccn2C)C1 [Example 49, 1,3-Dimethyl-N-[(2E)-1-methylpyridin-2(1H)-ylidene]azetidine-3-carboxamide]
- activity at 0.1 µM (α-synuclein aggregate [1]): 78%
- activity at 1 µM (α-synuclein aggregate [1]): 74%

SMILES: Cn1ccc(Cl)c/c1=N\C(=O)C1(C)COC1 [Example 20]
- activity at 0.1 µM (α-synuclein aggregate [1]): 16%
- activity at 1 µM (α-synuclein aggregate [1]): 49%

SMILES: Cn1ccc(C(F)(F)F)c/c1=N\C(=O)C1(C)COC1 [Example 6]
- activity at 0.1 µM (α-synuclein aggregate [1]): 38%
- activity at 1 µM (α-synuclein aggregate [1]): 26%

SMILES: Cn1cccc/c1=N\C(=O)N1CCOC(C)(C)C1 [Example 75, 2,2-Dimethyl-N-[(2E)-1-methylpyridin-2(1H)-ylidene]morpholine-4-carboxamide]
- activity at 0.1 µM (α-synuclein aggregate [1]): 49%
- activity at 1 µM (α-synuclein aggregate [1]): 63%

SMILES: Cn1cc(F)cc/c1=N\C(=O)C1(C)COC1 [Example 30]
- activity at 0.1 µM (α-synuclein aggregate [1]): 50%
- activity at 1 µM (α-synuclein aggregate [1]): 59%

SMILES: CCC1(C(=O)/N=c2\ccc(C(F)(F)F)cn2C)COC1 [Example 27]
- activity at 0.1 µM (α-synuclein aggregate [1]): 19%
- activity at 1 µM (α-synuclein aggregate [1]): 28%

Source: US20260042746A1, “2(1H)-PYRIDINIMINE DERATIVE” (SUMITOMO PHARMA CO., LTD., priority 2022, published 2026)
